Test system: PAF-induced bronchoconstriction
Experiment: Effect on bronchoconstriction induced by platelet activating factor (PAF) in guinea pigs (Konzett-Roessler method)
Format: in vivo, guinea pig (male Hartley)
Conditions: oral, 1 hour before PAF (1 μg/kg i.v.)
Experimental: [Effect on bronchoconstriction induced by platelet activating factor (PAF) in guinea pigs]
Male Hartley guinea pigs (body weights about 500 g) were used. The bronchoconstriction reaction in the guinea pig which has intravenously been administered with PAF (1 μg/kg) was measured by the Konzett-Roessler method.
The trachea of the guinea pig with its back fixed was incised under anesthesia condition with urethane (intravenous injection, 1.5 g/kg) and connected with an artificial respirator via a cannula. The branch of the tracheal cannula was connected with a transducer (7020 type, manufactured by Ugobasile). Air was sent to the trachea at the rate of 3 to 7 ml per stroke, 70 strokes/min. and at load pressure of 10 cm H2 O to lung, and overflowed air volume was recorded with Rectegraph (Recte-Hori-8s, Sanei Sokuki Co., Ltd., Japan) via transducer. After the guinea pig was treated with gallamine (intravenous injection, 1 mg/kg), 1 μg/kg of PAF dissolved in a physiological saline solution was administered to the guinea pig via jugular venous cannula and the bronchoconstriction reaction induced thereby was recorded for 15 minutes. The drug (3 mg/kg and 10 mg/kg respectively) suspended in a 5% gum arabic solution was administered orally 1 hour before the injection of PAF.

**Q.** Which “Inhibition (%) of PAF-induced bronchoconstriction” value (“Inhibition (%)” for short) (3 mg/kg) does the source give for `CC(C)(COc1ccc2nncn2n1)CS(N)(=O)=O` [Example 5, 6-(2,2-dimethyl-3-sulfamoyl-1-propoxy)[1,2,4]triazolo[4,3-b]pyridazine] here?
**A.** 22.4%

**Q.** What about the “Inhibition (%)” value (10 mg/kg) of the same compound?
**A.** 41.2%

**Q.** What does the source list for `CCC(CC)(COc1cc(C)c2nncn2n1)CS(N)(=O)=O` [Example 1, 6-(2,2-diethyl-3-sulfamoyl-1-propoxy)-8-methyl-[1,2,4]triazolo[4,3-b]pyridazine]?
**A.** Inhibition (%) of PAF-induced bronchoconstriction (3 mg/kg): 85.8%; Inhibition (%) of PAF-induced bronchoconstriction (10 mg/kg): 100%

**Q.** Which “Inhibition (%)” value (3 mg/kg) does the source give for `CCC(CC)(COc1ccc2nncn2n1)CS(N)(=O)=O` [Example 3, 6-(2,2-diethyl-3-sulfamoyl-1-propoxy)[1,2, 4]triazolo[4,3-b]pyridazine] here?
**A.** 51.1%

**Q.** What about the “Inhibition (%)” value (10 mg/kg) of the same compound?
**A.** 61.2%

Reference: US5492909A, “Triazolopyridazine derivatives, their production and use” (Takeda Chemical Industries, Ltd., priority 1993, dated 1996)
